Experimental data: ChEMBL document CHEMBL5042502, “Discovery of Potent and Selective 2-(Benzylthio)pyrimidine-based DCN1-UBC12 Inhibitors for Anticardiac Fibrotic Effects” (J Med Chem, 2022)
Active and inactive are the calls of the source. The rule behind the calls is not given here.

Experiments:
DCN1-like protein 1 [1] = target: T1, DCN1-like protein 1 (Homo sapiens, UniProt Q96GG9); test: Binding affinity to […] DCN1 (unknown origin) assessed as dissociation constant incubated for upto 180 secs by label-free biolayer interferometry assay
Target sequence in this assay (Q96GG9 whole entry): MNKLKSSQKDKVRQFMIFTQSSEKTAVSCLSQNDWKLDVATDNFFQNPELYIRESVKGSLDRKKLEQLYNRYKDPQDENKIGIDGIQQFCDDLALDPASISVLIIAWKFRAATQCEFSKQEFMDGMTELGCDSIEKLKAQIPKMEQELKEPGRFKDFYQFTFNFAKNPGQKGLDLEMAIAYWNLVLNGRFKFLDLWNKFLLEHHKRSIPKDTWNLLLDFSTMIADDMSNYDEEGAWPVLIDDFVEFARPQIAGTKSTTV

[2] = system: Fibroblast of cardiac tissue; test: Reversal of Ang II-induced increase in DCN1 secretion in mouse cardiac fibroblast at 1 uM preincubated for 2 hrs followed by Ang-II stimulation and further incubated for 24 hrs by western blot analysis; assay type: functional, cell-based; conditions: time 26.0 hrs
DCN1-like protein 1 [3] = target: T1, DCN1-like protein 1
Target sequence in this assay (Q96GG9 whole entry, looked up): as the sequence (Q96GG9 whole entry) above
Description: Binding affinity to DCN1 (unknown origin) assessed as Gibbs free energy change by MM-PBSA method

[4] = system: Fibroblast of cardiac tissue; test: Effect on Cul4A neddylation in mouse cardiac fibroblast at 1 uM preincubated for 2 hrs by Western blot analysis; assay type: functional, cell-based
Cardiac fibroblast [5] = test: Inhibition of DCN1 in Sprague-Dawley rat cardiac fibroblast assessed as suppression in DCN1-UBC12 interaction by measuring reduction in UBC12 level at 10 uM incubated for 5 hrs co-incubated with DCN1 antibody by co-immunoprecipitation pull down assay; assay type: cell-based
Cardiac fibroblast [6] = test: Inhibition of DCN1 in Ang II-treated Sprague-Dawley rat cardiac fibroblast assessed as inhibited cell migration at 0.1 to 3 uM incubated for 24 hrs stained with crystal violet by transwell migration assay; assay type: cell-based; conditions: Sprague-Dawle, dose 0.1-3 µM
[7] = system: Fibroblast of cardiac tissue; test: Effect on Cul5 neddylation in mouse cardiac fibroblast at 1 uM preincubated for 2 hrs by Western blot analysis; assay type: functional, cell-based
Cardiac fibroblast [8] = test: Inhibition of intracellular DCN1 in Sprague-Dawley rat cardiac fibroblast measured between 42 to 62 degC at 10 uM incubated for 5 hrs by cellular thermal shift assay; assay type: cell-based
[9] = system: Fibroblast of cardiac tissue; test: Antifibrotic effect in SD rat cardiac fibroblast assessed as reduction in Ang II-induced collagen I upregulation preincubated for 2 hrs followed by Ang II-stimulation and further incubated for 24 hrs by western blot analysis (reference value: 71 %); assay type: functional; conditions: time 26 hrs
[10] = Toxicity in 24 hr starved C57BL/6 mouse assessed as pathological change in kidney at 2 g/Kg administered via gavage measured after 2 weeks by H and E staining based histopathological analysis; assay type: tissue-based; conditions: in vivo, po, 2000 mg/kg
[11] = system: Fibroblast of cardiac tissue; test: Antifibrotic effect in SD rat cardiac fibroblast transfected with DCN1 siRNA assessed as effect on collagen I expression at 1 uM preincubated for 2 hrs followed by Ang II-stimulation and further incubated for 24 hrs by western blot analysis; assay type: functional, cell-based; conditions: time 26.0 hrs
[12] = system: Fibroblast of cardiac tissue; test: Antifibrotic effect in SD rat cardiac fibroblast transfected with DCN1 siRNA assessed as effect on collagen III expression at 1 uM preincubated for 2 hrs followed by Ang II-stimulation and further incubated for 24 hrs by western blot analysis; assay type: functional, cell-based; conditions: time 26.0 hrs
[13] = system: Fibroblast of cardiac tissue; test: Inhibition of differentiation of Ang II-induced mouse cardiac fibroblast to myofibroblast assessed as decrease in alpha-SMA expression levels at 1 uM preincubated for 2 hrs followed by Ang-II stimulation and further incubated for 24 hrs by immunofluorescence assay; assay type: functional, cell-based; conditions: time 26.0 hrs
DCN1-like protein 3 = target: T2, DCN1-like protein 3 (Homo sapiens, UniProt Q8IWE4); test: Binding affinity to DCN3 (unknown origin) assessed as inhibitory constant
T2 sequence (Q8IWE4 whole entry): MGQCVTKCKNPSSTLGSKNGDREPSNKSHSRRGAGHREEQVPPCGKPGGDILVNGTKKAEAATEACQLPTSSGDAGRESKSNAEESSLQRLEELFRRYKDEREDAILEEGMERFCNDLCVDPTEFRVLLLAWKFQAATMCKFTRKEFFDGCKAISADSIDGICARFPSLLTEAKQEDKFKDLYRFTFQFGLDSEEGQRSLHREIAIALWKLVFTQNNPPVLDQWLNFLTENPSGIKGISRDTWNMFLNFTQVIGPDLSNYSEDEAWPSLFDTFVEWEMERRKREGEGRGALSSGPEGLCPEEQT

DCN1-like protein 5 = target: T3, DCN1-like protein 5 (Homo sapiens, UniProt Q9BTE7); test: Binding affinity to DCN5 (unknown origin) assessed as inhibitory constant
T3 sequence (Q9BTE7 whole entry): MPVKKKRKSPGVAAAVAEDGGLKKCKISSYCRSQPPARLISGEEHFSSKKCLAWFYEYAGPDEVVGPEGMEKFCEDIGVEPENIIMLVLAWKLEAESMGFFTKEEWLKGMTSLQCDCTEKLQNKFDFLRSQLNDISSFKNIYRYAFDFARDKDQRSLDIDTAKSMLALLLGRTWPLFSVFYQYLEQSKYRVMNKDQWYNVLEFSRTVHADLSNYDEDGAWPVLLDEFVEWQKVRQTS

Cardiac fibroblast [14] = test: Inhibition of DCN1 in Ang II-treated Sprague-Dawley rat cardiac fibroblast assessed as decrease in cell migration preincubated for 2 hrs followed by Ang-II stimulation and further incubated for 24 hrs by scratch wound healing assay based microscopy; conditions: Sprague-Dawle, time 26.0 hrs
[15] = Toxicity in 24 hr starved C57BL/6 mouse assessed as pathological change in liver at 2 g/Kg administered via gavage measured after 2 weeks by H and E staining based histopathological analysis; assay type: tissue-based; conditions: in vivo, po, 2000 mg/kg
[16] = Cytotoxicity against Sprague-Dawley rat cardiac fibroblast by MTT assay; assay type: toxicity, cell-based, Fibroblast of cardiac tissue; conditions: cardiac fibroblasts
DCN1-like protein 1 [17] = target: T1, DCN1-like protein 1; test: Inhibition of GST-tagged DCN1 (unknown origin) using AcUBE2M1-21 incubated for 30 mins by HTRF assay
Target sequence in this assay (Q96GG9 whole entry): as the sequence (Q96GG9 whole entry) above

Cardiac fibroblast [18] = test: Inhibition of DCN1 in TGF-beta-treated Sprague-Dawley rat cardiac fibroblast assessed as inhibition of cell proliferation at 0.1 to 3 uM preincubated for 2 hrs followed by TGF-beta stimulation and further incubated for 24 hrs by MTT assay; assay type: cell-based; conditions: dose 0.1-3 µM, time 26.0 hrs
DCN1-like protein 1 [19] = target: T1, DCN1-like protein 1; test: Binding affinity to DCN1 (unknown origin) assessed as inhibitory constant
Target sequence in this assay (Q96GG9 whole entry): as the sequence (Q96GG9 whole entry) above

[20] = system: Fibroblast of cardiac tissue; test: Reversal of Ang II-induced increase in cullin 3 secretion in mouse cardiac fibroblast at 1 uM preincubated for 2 hrs followed by Ang-II stimulation and further incubated for 24 hrs by western blot analysis; assay type: functional, cell-based; conditions: time 26.0 hrs
[21] = system: Fibroblast of cardiac tissue; test: Reversal of Ang II-induced decrease in Nrf2 secretion in mouse cardiac fibroblast at 1 uM preincubated for 2 hrs followed by Ang-II stimulation and further incubated for 24 hrs by western blot analysis; assay type: functional, cell-based; conditions: time 26.0 hrs
[22] = system: Fibroblast of cardiac tissue; test: Effect on Ang II-induced in Cul4B neddylation in mouse cardiac fibroblast at 1 uM preincubated for 2 hrs followed by Ang-II stimulation and further incubated for 24 hrs by western blot analysis; assay type: functional, cell-based; conditions: time 26.0 hrs
[23] = system: Fibroblast of cardiac tissue; test: Effect on Ang II-induced in Cul5 neddylation in mouse cardiac fibroblast at 1 uM preincubated for 2 hrs followed by Ang-II stimulation and further incubated for 24 hrs by western blot analysis; assay type: functional, cell-based; conditions: time 26.0 hrs
[24] = Toxicity in 24 hr starved C57BL/6 mouse assessed as change in body weight at 2 g/Kg administered via gavage measured upto 2 weeks; conditions: in vivo, po, 2000 mg/kg
[25] = system: Fibroblast of cardiac tissue; test: Reversal of Ang II-induced increase in collagen III secretion in mouse cardiac fibroblast at 1 uM preincubated for 2 hrs followed by Ang-II stimulation and further incubated for 24 hrs by western blot analysis; assay type: functional, cell-based; conditions: time 26.0 hrs
[26] = system: Fibroblast of cardiac tissue; test: Effect on Ang II-induced in Cul1 neddylation in mouse cardiac fibroblast at 1 uM preincubated for 2 hrs followed by Ang-II stimulation and further incubated for 24 hrs by western blot analysis; assay type: functional, cell-based; conditions: time 26.0 hrs
[27] = system: Fibroblast of cardiac tissue; test: Effect on Ang II-induced in Cul2 neddylation in mouse cardiac fibroblast at 1 uM preincubated for 2 hrs followed by Ang-II stimulation and further incubated for 24 hrs by western blot analysis; assay type: functional, cell-based; conditions: time 26.0 hrs

COc1cc(-c2nc(SCc3ccc(Cl)cc3)nc(Sc3nnnn3C)c2C#N)cc(OC)c1OC
Kd (DCN1-like protein 1 [1]): 0.026 µM
Activity [2]: Active
deltaG (DCN1-like protein 1 [3]): -8.75 kcal/mol
Activity [4]: Active
inhibition (Cardiac fibroblast [5]): Active
inhibition (Cardiac fibroblast [6]): Active
Activity [7]: Active
inhibition (Cardiac fibroblast [8]): Active
inhibition (INH) [9]: 33%
Activity [10]: Non-Toxic
inhibition [11]: inactive
inhibition [12]: inactive
inhibition [13]: Active
Ki (DCN1-like protein 3): 385 µM
Ki (DCN1-like protein 5): 28.9 µM
inhibition (Cardiac fibroblast [14]): Active
Activity [15]: Non-Toxic
IC50 [16]: 27.3 µM
IC50 (DCN1-like protein 1 [17]): 0.00955 µM
inhibition (Cardiac fibroblast [18]): Dose-Dependent Effect
Ki (DCN1-like protein 1 [19]): 0.00826 µM
Activity [20]: Active
Activity [21]: Active
Activity [22]: Active
Activity [23]: Active
Activity [24]: Non-Toxic
Activity [25]: Active
Activity [26]: Active
Activity [27]: Active
